Reference: article PMC4459817, “Vasculotide reduces endothelial permeability and tumor cell extravasation in the absence of binding to or agonistic activation of Tie2” (EMBO Molecular Medicine, 2015)

Experiments:
[1] = test system: orthotopic LM2-4luc breast cancer xenografts; assay: orthotopic LM2-4luc xenografts, unresected: primary tumor and spontaneous metastasis; format: in vivo, human LM2-4luc cells in CB-17 SCID mice; conditions: for primary tumor growth: VT from 10DPI, SU 7 days from 17DPI, n = 8, volume or bioluminescence, Fig5A–C
Source text: The first experiment involved VT and SU treatments in the presence of an unresected primary tumor (Fig5). At 10 days post-implantation (DPI), when primary tumors reached an average size of ∽175 mm^3, mice were randomized into groups and chronic VT therapy was initiated. At 17DPI, when tumors reached an average size (∽400 mm^3) where tumor debulking is typically required for long-term metastasis experiments, a 7-day anti-angiogenic SU treatment was initiated in lieu of surgical resection.
In vivo experiments were performed in strict accordance with protocols approved by the Sunnybrook Research Institute Animal Care Committee, accredited by the Canadian Council of Animal Care. All surgical, imaging, and euthanasia procedures were performed under inhaled isoflurane anesthesia. Experimental metastasis models involved injections of 10^6 tumor cells, suspended in 200 μl serum-free DMEM, into the mouse tail vein. LM2-4^luc implantations were performed on 6 to 8-week-old female CB-17 SCID mice (Charles River Canada). HT29^luc implantations were performed on 19- to 20-week-old male and 11- to 12-week-old female YFP-SCID mice (bred in-house). SN12^luc implantations were performed on 9-week-old male YFP-SCID mice. Spontaneous metastasis models involved orthotopic implantations of 2 × 10^6 LM2-4^luc cells/50 μl serum-free DMEM in the right inguinal mammary fat pads of 6-week-old female CB-17 SCID mice.
Sunitinib malate (SU), from Pfizer or LC Laboratories, and its vehicle were formulated as described before (Ebos et al, [2009]). SU was administered by oral gavage (PO), once daily, at a dose of 60 mg/kg mouse weight. Vasculotide (VT): VT synthesized at the Sunnybrook Research Institute (Toronto, ON, Canada) was used in experiments described in Fig2(A–D) and Supplementary Fig S5(A and B). VT synthesized by American Peptide (Sunnyvale, CA, USA) was used in experiments described in Fig5. VT synthesized by Bachem UK Ltd was used in experiments described in Figs1, 2(E–H), 3, 4, 6–9, Supplementary Figs S2, and S5(C and D). Lyophilized product was reconstituted in PBS to 500 μg/500 μl stock aliquots and stored at −80°C. As needed, stock aliquots were diluted with PBS to a 250 ng/50 μl working concentration and stored in 0.4–1 ml aliquots at −80°C. VT (at a standard dose of 250 ng/mouse) or its vehicle (PBS) was administered to mice by intraperitoneal (IP) injections every other day.
5. Bioluminescence imaging (BI) of tumor burden
For in vivo BI: Mice were injected intraperitoneally with 150mg/kg luciferin (Promega) 10 minutes prior to and anesthetized with isofluorane just before luminescent pseudocolor imaging (uniform settings: CCD camera locked at -105 °C, exposure=60s, f/1, subject size=1.5cm, bin=8, FOV=23.2cm, full image correction) using the IVIS 200 Imaging System (Caliper/PerkinElmer). Using the Living Image software (v2.50.1, Xenogen), weekly images were analyzed under uniform color range on grayscale photographic overlay. Total fluxes (photons/sec) were quantified within consistent regions of interest and statistically compared ideally at a timepoint before any deaths have occurred.
For ex vivo BI: Mice were sacrificed at 7 mins after luciferin injections, then organs of interest were dissected and individually placed within 24-well plates for imaging at 10 min post-luciferin injection.
6. Immunohistochemical (IHC) analysis of lung metastases
Surgically dissected lungs were fixed in 4% paraformaldehyde (PFA) overnight and stored in 70% ethanol. Three paraffin-embedded cross-sections per lung, 5-μm thick, 60 μ m apart, were subjected to IHC staining using a serum-free protein block (Dako X0909), an anti-human vimentin antibody (clone V9, Invitrogen 18-0052; 1:100 in Dako S3022 diluent), the universal ‘LSAB+, HRP’ detection kit (Dako K0690), the DAB+ chromogen-substrate system (Dako K3467) and hematoxylin counterstain.
Quantification procedure involved visual survey of entire tissue sections and tallying of DAB-stained […]

dermal HMVECs = assay: modified Boyden chamber, tumor cell-conditioned media (TC-CM) stimulated dextran permeability; format: cell-based, human; conditions: 20 ng/mL VT or 400 ng/mL Ang1 vs PBS; paired t-test, n = 11 experimental replicates; Fig4A
Description: To investigate this possibility in vitro, we performed modified Boyden chamber assays where we stimulated ECs with tumor cell-conditioned media (TC-CM)—that is, supplement-reduced EC growth media containing all the cytokines naturally secreted by LM2-4^luc, SN12^luc, or HT29^luc cells over 30 hours of hypoxic incubation (1% O2).
Meta-analyses of treatment effects on dextran permeability (A) and tumor cell migration (B), where each datapoint represents the mean of an independent experiment, averaged over 2–3 biological replicates (inserts) per treatment group and normalized internally within that same experiment.
Endothelial cells (ECs) were grown on cell culture inserts with uncoated 8-μm-pore PET filter membranes to 100% confluency. See Supplementary Fig S4 for detailed timelines. […] Permeability assays: A total of 100 μg of FITC-dextran (Sigma FD-20S) was dispensed into the upper chamber media. After 30 min of thrombin stimulation or 4–6 h of TC-CM stimulation, FITC fluorescence (ex/em = 490/520 nm) was measured from a 50 μl sample of the lower chamber media. […] CMPTX fluorescence from migrated TCs was then quantified from 10× microscopy images using a MATLAB (MathWorks, Natick, MA, USA) script; five images (technical replicates) were analyzed per insert. […]

[2] = 39DPI, SU 1wk with or without VT, Fig5F

CCN(CC)CCNC(=O)c1c(C)[nH]c(/C=C2\C(=O)Nc3ccc(F)cc32)c1C [sunitinib, reference compound]
incidence of lung metastases (ex vivo bioluminescent imaging) [1, 2]: 4/8 | incidence of lymph node metastases (ex vivo bioluminescent imaging) [1, 2]: 4/8 | primary tumor burden by volume ([1]; SU 7-day, one-way ANOVA, Fig5B): significantly lowered primary tumor burden | primary tumor burden by bioluminescent activity ([1]; SU 7-day, one-way ANOVA, Fig5C): significantly lowered primary tumor burden | primary tumor growth [1]: effectively stabilized primary tumor growth

CHHHRHSF [Vasculotide, 4-armed maleimide-functionalized polyethylene glycol (PEG) backbone to link together four cysteine-capped T7 peptides, that is, CHHHRHSF]
transendothelial macromolecular (dextran) permeability in presence of TC-CM (dermal HMVECs): reduced transendothelial macromolecular permeability (P < 0.05 | incidence of lymph node metastases (ex vivo bioluminescent imaging) ([1]; 32DPI, vehicle 2/8, Fig5F): 1/8 | incidence of lung metastases (ex vivo bioluminescent imaging) ([1]; 32DPI, vehicle 6/8, Fig5F): 2/8 | mean thickness of the viable peripheral regions of primary tumors (H&E) ([1]; 22 days of VT treatment, Fig5D): did not alter the mean thickness of the viable peripheral regions | mean thickness of the CAIX+ hypoxic edge of primary tumors ([1]; 22 days of VT treatment, Fig5E): did not alter the mean thickness of the CAIX^+ hypoxic edge | primary tumor growth [1]: did not alter the growth kinetics of primary tumors | lung metastatic nodule size distribution (human vimentin IHC) ([1]; VT monotherapy, P = 0.05–0.09, Fig5G): delayed the seeding or progression of lung micrometastases | anti-metastatic benefit of concurrent VT treatment by regional IHC analysis ([1]; VT with SU, Fig5G): not detectable by regional IHC analysis | metastatic involvement in the lungs (EVBI) ([1]; VT-treated groups vs vehicle or SU monotherapy, Fig5F): trends of reduced incidences of metastatic involvement in the lungs, but no change in the lymph nodes

B1: recombinant human Ang1 (rhAng1) (ligand, UniProt Q15389 16-498, looked up)
chain: HIGCSNQRRSPENSGRRYNRIQHGQCAYTFILPEHDGNCRESTTDQYNTNALQRDAPHVEPDFSSQKLQHLEHVMENYTQWLQKLENYIVENMKSEMAQIQQNAVQNHTATMLEIGTSLLSQTAEQTRKLTDVETQVLNQTSRLEIQLLENSLSTYKLEKQLLQQTNEILKIHEKNSLLEHKILEMEGKHKEELDTLKEEKENLQGLVTRQTYIIQELEKQLNRATTNNSVLQKQQLELMDTVHNLVNLCTKEGVLLKGGKREEEKPFRDCADVYQAGFNKSGIYTIYINNMPEPKKVFCNMDVNGGGWTVIQHREDGSLDFQRGWKEYKMGFGNPSGEYWLGNEFIFAITSQRQYMLRIELMDWEGNRAYSQYDRFHIGNEKQNYRLYLKGHTGTAGKQSSLILHGADFSTKDADNDNCMCKCALMLTGGWWFDACGPSNLNGMFYTAGQNHGKLNGIKWHYFKGPSYSLRSTTMMIRPLDF
notes: angiopoietin-1, human, recombinant; also called angiopoietin-1; source: bought: R&D Systems (named for the Boyden chamber experiments)
transendothelial macromolecular (dextran) permeability in presence of TC-CM (dermal HMVECs): reduced transendothelial macromolecular permeability (P < 0.05
